Results on seven molecules are retold here after ChEMBL document CHEMBL1201862, “PubChem BioAssay data set” (2004).

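Assay format: 96-well plates, 48-hour exposure. GI50 marks 50% less growth.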 Active and inactive are the calls of the source. Rule as the data show it: active = GI50 up to about 1.1 µM and inactive = higher.

Test systems include EKVX; COLO 205; U-251; T47D; SK-OV-3; Hs-578T; RXF 393; HOP-62; MDA-MB-435; OVCAR-5; SR; A498; CAKI-1; Malme-3M; ACHN; BT-549; OVCAR-4; DU-145; UACC-257; NCI-H460.
Common to all, as to experiment: inhibition of tumour cell growth, NCI panel, 48 h

For the molecule `O=C(/N=C1/OC(CN2CCOCC2)CN1C(=O)Nc1ccccc1)Nc1ccccc1` (stereo not given), the GI50 was > 100 µM (inactive) with EKVX; > 100 µM (inactive) in the test with COLO 205; > 100 µM (inactive) in the test with U-251; 21.4 µM (inactive) in the test with T47D; > 100 µM (inactive) with SK-OV-3; > 100 µM (inactive) in the test with Hs-578T. Also, the GI50 with RXF 393, with HOP-62, in the test on MDA-MB-435, in the test with OVCAR-5, in the test with SR and in the test with A498 was > 100 µM (inactive) throughout. The GI50 with CAKI-1, with Malme-3M, in the test on ACHN, with BT-549, with OVCAR-4 and in the test with DU-145 was > 100 µM (inactive) throughout. Besides, the GI50 with UACC-257 and in the test with NCI-H460 was > 100 µM (inactive) throughout.

`c1ccc(COc2nc3cc(C45CC6CC(CC(C6)C4)C5)ccc3[nH]2)cc1`: the GI50 was 13.5 µM (inactive) with EKVX; 4.01 µM (inactive) in the test on COLO 205; 8.87 µM (inactive) with U-251; 2.83 µM (inactive) in the test with T47D; 29.8 µM (inactive) in the test with SK-OV-3; 23 µM (inactive) in the test with Hs-578T. For the same molecule, the GI50 in the test with RXF 393 was 11.3 µM (inactive); in the test with HOP-62 it was 24.4 µM (inactive); in the test with MDA-MB-435, 8.95 µM (inactive); in the test with OVCAR-5, 41 µM (inactive); in the test on SR it was > 100 µM (inactive); in the test on A498 it was 23.3 µM (inactive). Besides, the GI50 was 39.7 µM (inactive) in the test with CAKI-1; 9.16 µM (inactive) with Malme-3M; 14.6 µM (inactive) in the test on ACHN; 19.8 µM (inactive) in the test on BT-549; > 31.3 µM (inactive) in the test on OVCAR-4; 20.1 µM (inactive) in the test on DU-145. The GI50 is 2.92 µM (inactive) with UACC-257 and 9.2 µM (inactive) in the test with NCI-H460.

Consider `C/C(=C\c1csc(C)n1)[C@@H]1C[C@@H]2O[C@@H]2CCC[C@H](C)[C@H](O)[C@@H](C)C(=O)C(C)(C)[C@@H](O)CC(=O)O1.C/C(=C\c1csc(C)n1)[C@@H]1C[C@@H]2O[C@]2(C)CCC[C@H](C)[C@H](O)[C@@H](C)C(=O)C(C)(C)[C@@H](O)CC(=O)O1`, for which the GI50 in the test on EKVX is 0.0252 µM (active); with COLO 205 it was 0.00299 µM (active); with U-251, 0.0055 µM (active); in the test on T47D, 0.0366 µM (active); in the test on SK-OV-3 it was 0.00971 µM (active); in the test on Hs-578T, 0.00378 µM (active). Further, the GI50 was 0.00266 µM (active) in the test on RXF 393; 0.0258 µM (active) in the test with HOP-62; 0.000973 µM (active) with MDA-MB-435; 0.108 µM (active) with OVCAR-5; 0.00397 µM (active) in the test with SR; 0.0105 µM (active) in the test with A498. In addition, the GI50 is 0.0101 µM (active) in the test on CAKI-1; 0.129 µM (active) in the test on Malme-3M; 0.0179 µM (active) in the test on ACHN; 0.0569 µM (active) with BT-549; 1 µM (active) in the test on OVCAR-4; 0.00604 µM (active) in the test on DU-145. The GI50 in the test with UACC-257 is 0.145 µM (active); in the test on NCI-H460 it was 0.00129 µM (active).

As to `CC(=O)NC1C(OCc2ccccc2)OC(CO)C(O)C1OCC(=O)NC(C(=O)NC(CCC(=O)NCCCCCC(=O)Nc1ccc2c(c1)CN1C(=O)c3ccccc3C1=N2)C(N)=O)C(C)C` (stereo not given), the GI50 in the test with EKVX is 31.6 µM (inactive); in the test on COLO 205, 47 µM (inactive); in the test on U-251 it was 18.8 µM (inactive); in the test on T47D, 22.3 µM (inactive); in the test with SK-OV-3 it was 18.8 µM (inactive); with Hs-578T, 23.7 µM (inactive). Further, the GI50 was 21.8 µM (inactive) with RXF 393; 20.3 µM (inactive) in the test on HOP-62; 31.6 µM (inactive) in the test on MDA-MB-435; > 100 µM (inactive) in the test on OVCAR-5; 88.1 µM (inactive) with SR; 24.9 µM (inactive) in the test with A498. For the same molecule, the GI50 is 28.8 µM (inactive) in the test on CAKI-1; 23.8 µM (inactive) with Malme-3M; 46.3 µM (inactive) with ACHN; 21.6 µM (inactive) in the test with BT-549; 21.9 µM (inactive) with OVCAR-4; 63.8 µM (inactive) in the test on DU-145. In addition, the GI50 is 25.9 µM (inactive) in the test with UACC-257 and 20.8 µM (inactive) in the test on NCI-H460.

With `CC1=C(N2CC2)C(=O)C(C)=C(N2CC2)C1=O`, the GI50 in the test with EKVX was 0.697 µM (active); in the test with COLO 205 it was 0.206 µM (active); in the test on U-251, 0.152 µM (active); in the test on T47D, 0.208 µM (active); with SK-OV-3, 0.31 µM (active); with Hs-578T, 0.933 µM (active). In addition, the GI50 is 0.151 µM (active) in the test with RXF 393; 0.102 µM (active) in the test with HOP-62; 0.288 µM (active) in the test with MDA-MB-435; 0.296 µM (active) in the test with OVCAR-5; 0.05 µM (active) with SR; 0.178 µM (active) in the test on A498. The GI50 in the test with CAKI-1 is 0.0991 µM (active); in the test with Malme-3M, 0.204 µM (active); in the test on ACHN it was 0.0315 µM (active); in the test with BT-549 it was 0.417 µM (active); in the test on OVCAR-4, 0.283 µM (active); with DU-145, 0.0469 µM (active). Also, the values for the GI50 with UACC-257 and in the test on NCI-H460 were 0.465 µM (active) and < 0.0111 µM (active), respectively.

As to `CN(C)CCCN1c2ccc(O)cc2Sc2ccc(Cl)cc21` [7-HYDROXYCHLORPROMAZINE], the GI50 in the test with EKVX is 18.4 µM (inactive); in the test on COLO 205, 20.8 µM (inactive); in the test with U-251, 9.86 µM (inactive); in the test with T47D, 21 µM (inactive); in the test on SK-OV-3 it was 17.4 µM (inactive); with Hs-578T it was 4.04 µM (inactive). Moreover, the GI50 was 16.9 µM (inactive) with RXF 393; 15.1 µM (inactive) in the test with HOP-62; 8.91 µM (inactive) with MDA-MB-435; 15.1 µM (inactive) with OVCAR-5; 2.96 µM (inactive) with SR; 16.5 µM (inactive) in the test on A498. For the same molecule, the GI50 is 4.2 µM (inactive) in the test with CAKI-1; 10.3 µM (inactive) in the test on Malme-3M; 14.8 µM (inactive) in the test with ACHN; 12.4 µM (inactive) in the test on BT-549; 12.5 µM (inactive) with OVCAR-4; 17.9 µM (inactive) in the test with DU-145. The GI50 is 1.71 µM (inactive) with UACC-257 and 3.82 µM (inactive) with NCI-H460.

As to `Cc1c(F)c(N)c2c(=O)cc(-c3ccc(N)c(F)c3)oc2c1F` [AMINOFLAVONE], the GI50 with EKVX is 13.7 µM (inactive); in the test on COLO 205, 32.5 µM (inactive); with U-251, 4.2 µM (inactive); in the test with T47D, 0.313 µM (active); in the test on SK-OV-3 it was 17.6 µM (inactive); with Hs-578T it was 38.1 µM (inactive). In addition, the GI50 is 17 µM (inactive) with RXF 393; 12.7 µM (inactive) with HOP-62; 43.5 µM (inactive) in the test on MDA-MB-435; 0.15 µM (active) in the test on OVCAR-5; 18.7 µM (inactive) with SR; 0.366 µM (active) with A498. Besides, the GI50 with CAKI-1 is < 0.0131 µM (active); in the test with Malme-3M it was 33.5 µM (inactive); with ACHN it was 15.7 µM (inactive); in the test on BT-549, 17.5 µM (inactive); in the test on OVCAR-4, 18.8 µM (inactive); in the test with DU-145 it was 26.3 µM (inactive). Further, the values for the GI50 in the test with UACC-257 and with NCI-H460 were 0.298 µM (active) and 0.199 µM (active), respectively.
